Laboratory results: ChEMBL document CHEMBL4308841, “Synthesis, in vitro antiproliferative activity, and kinase inhibitory effects of pyrazole-containing diarylureas and diarylamides” (Eur J Med Chem, 2018)

Experiments:
[1] = tested on: A498; assay: Growth inhibition of human A498 cells assessed as cell growth at 100 uM incubated for 48 hrs by sulforhodamine B assay relative to control; type: functional; conditions: A498, 48 h, read-out: Activity
[2] = tested on: SN12C; assay: Growth inhibition of human SN12C cells assessed as cell growth at 1 uM incubated for 48 hrs by sulforhodamine B assay relative to control; type: functional; conditions: read-out: Activity
[3] = tested on: RXF 393; assay: Growth inhibition of human RXF393 cells assessed as cell growth at 100 uM incubated for 48 hrs by sulforhodamine B assay relative to control; type: functional; conditions: RXF 393, 48 h, read-out: Activity
[4] = tested on: UACC-257; assay: Growth inhibition of human UACC257 cells incubated for 48 hrs by sulforhodamine B assay; type: functional, cell-based; conditions: UACC-257, 48 h
[5] = tested on: UACC-257; assay: Growth inhibition of human UACC257 cells assessed as cell growth at 0.1 uM incubated for 48 hrs by sulforhodamine B assay relative to control; type: functional; conditions: UACC-257, 48 h, read-out: Activity
[6] = tested on: SF-268; assay: Growth inhibition of human SF268 cells assessed as cell growth at 0.01 uM incubated for 48 hrs by sulforhodamine B assay relative to control; type: functional; conditions: SF-268, 48 h, read-out: Activity
[7] = tested on: SNB-19; assay: Growth inhibition of human SNB19 cells assessed as cell growth at 1 uM incubated for 48 hrs by sulforhodamine B assay relative to control; type: functional; conditions: SNB-19, 48 h, read-out: Activity
[8] = tested on: NCI-H322M; assay: Growth inhibition of human NCI-H322M cells assessed as cell growth at 0.1 uM incubated for 48 hrs by sulforhodamine B assay relative to control; type: functional; conditions: read-out: Activity
[9] = tested on: UACC-62; assay: Growth inhibition of human UACC62 cells assessed as cell growth at 1 uM incubated for 48 hrs by sulforhodamine B assay relative to control; type: functional; conditions: UACC-62, 48 h, read-out: Activity
[10] = tested on: MDA-MB-468; assay: Growth inhibition of human MDA-MB-468 cells assessed as cell growth at 1 uM incubated for 48 hrs by sulforhodamine B assay relative to control; type: functional; conditions: MDA-MB-468, 48 h, read-out: Activity
[11] = tested on: DU-145; assay: Growth inhibition of human DU145 cells assessed as cell growth at 0.01 uM incubated for 48 hrs by sulforhodamine B assay relative to control; type: functional; conditions: DU-145, 48 h, read-out: Activity
[12] = tested on: UO-31; assay: Growth inhibition of human UO31 cells assessed as cell growth at 0.1 uM incubated for 48 hrs by sulforhodamine B assay relative to control; type: functional; conditions: UO-31, 48 h, read-out: Activity
[13] = tested on: LOX IMVI; assay: Growth inhibition of human LOXIMVI cells incubated for 48 hrs by sulforhodamine B assay; type: functional
[14] = tested on: HCC 2998; assay: Growth inhibition of human HCC2998 cells assessed as cell growth at 1 uM incubated for 48 hrs by sulforhodamine B assay relative to control; type: functional; conditions: HCC 2998, 48 h, read-out: Activity
[15] = tested on: SF-268; assay: Growth inhibition of human SF268 cells incubated for 48 hrs by sulforhodamine B assay; type: functional, cell-based; conditions: SF-268, 48 h
[16] = tested on: RPMI-8226; assay: Growth inhibition of human RPMI8226 cells assessed as cell growth at 100 uM incubated for 48 hrs by sulforhodamine B assay relative to control; type: functional; conditions: RPMI-8226, 48 h, read-out: Activity
[17] = tested on: Malme-3M; assay: Growth inhibition of human MALME-3M cells assessed as cell growth at 1 uM incubated for 48 hrs by sulforhodamine B assay relative to control; type: functional; conditions: read-out: Activity
[18] = tested on: NCI/ADR-RES; assay: Growth inhibition of human NCI/ADR-RES cells assessed as cell growth at 0.01 uM incubated for 48 hrs by sulforhodamine B assay relative to control; type: functional; conditions: read-out: Activity
[19] = tested on: HT-29; assay: Growth inhibition of human HT-29 cells assessed as cell growth at 10 uM incubated for 48 hrs by sulforhodamine B assay relative to control; type: functional; conditions: HT-29, 48 h, read-out: Activity
[20] = tested on: K562; assay: Growth inhibition of human K562 cells incubated for 48 hrs by sulforhodamine B assay; type: functional, cell-based; conditions: K562, 48 h
[21] = tested on: HOP-62; assay: Growth inhibition of human HOP62 cells assessed as cell growth at 1 uM incubated for 48 hrs by sulforhodamine B assay relative to control; type: functional; conditions: HOP-62, 48 h, read-out: Activity
[22] = tested on: OVCAR-5; assay: Growth inhibition of human OVCAR5 cells assessed as cell growth at 100 uM incubated for 48 hrs by sulforhodamine B assay relative to control; type: functional; conditions: OVCAR-5, 48 h, read-out: Activity
[23] = tested on: COLO 205; assay: Growth inhibition of human COLO205 cells assessed as cell growth at 0.01 uM incubated for 48 hrs by sulforhodamine B assay relative to control; type: functional; conditions: COLO 205, 48 h, read-out: Activity
[24] = tested on: SW-620; assay: Growth inhibition of human SW620 cells incubated for 48 hrs by sulforhodamine B assay; type: functional, cell-based; conditions: SW-620, 48 h
[25] = tested on: M14; assay: Growth inhibition of human M14 cells assessed as cell growth at 100 uM incubated for 48 hrs by sulforhodamine B assay relative to control; type: functional; conditions: M14, 48 h, read-out: Activity
[26] = tested on: UACC-62; assay: Growth inhibition of human UACC62 cells assessed as cell growth at 100 uM incubated for 48 hrs by sulforhodamine B assay relative to control; type: functional; conditions: UACC-62, 48 h, read-out: Activity
[27] = tested on: HCC 2998; assay: Growth inhibition of human HCC2998 cells assessed as cell growth at 0.01 uM incubated for 48 hrs by sulforhodamine B assay relative to control; type: functional; conditions: HCC 2998, 48 h, read-out: Activity
[28] = tested on: U-251; assay: Growth inhibition of human U251 cells assessed as cell growth at 0.01 uM incubated for 48 hrs by sulforhodamine B assay relative to control; type: functional; conditions: U-251, 48 h, read-out: Activity
[29] = tested on: NCI-H226; assay: Growth inhibition of human NCI-H226 cells assessed as cell growth at 1 uM incubated for 48 hrs by sulforhodamine B assay relative to control; type: functional; conditions: NCI-H226, 48 h, read-out: Activity
[30] = tested on: DU-145; assay: Growth inhibition of human DU145 cells assessed as cell growth at 0.1 uM incubated for 48 hrs by sulforhodamine B assay relative to control; type: functional; conditions: DU-145, 48 h, read-out: Activity
[31] = read-out: LC50 (the source's name)
[32] = read-out: pLC50 (the source's name) (converted)

In the case of `O=C(Nc1cccc(-n2cc(-c3ccncc3)c(-c3cc(O)cc(Cl)c3)n2)c1)Nc1ccc(Cl)c(C(F)(F)F)c1`, the growth at 100 µM [1] is reported as -35%, the growth at 1 µM [2] is reported as 97% and the growth at 100 µM [3] is reported as -72%. The GI50 ([4]; read-out: GI50) was 1.99 µM, the CC50 [4, 31] was 19.2 µM and the TGI ([4]; read-out: TGI) was 63.4 µM. It also gave a GI50 ([4]; read-out: pGI50 (converted)) of 2 µM, a CC50 [4, 32] of 19.1 µM and a TGI ([4]; read-out: pTGI (converted)) of 5.37 µM. It also gave a growth at 0.1 µM [5] of 91%, a growth at 0.01 µM [6] of 95% and a growth at 1 µM [7] of 104%. It also gave a growth at 0.1 µM [8] of 101%, a growth at 1 µM [9] of 99% and a growth at 1 µM [10] of 75%. For the same molecule, the growth at 0.01 µM [11] was 103%, the growth at 0.1 µM [12] was 83% and the GI50 ([13]; read-out: GI50) was 1.97 µM. The CC50 [13, 31] was 95.5 µM, the TGI ([13]; read-out: TGI) was 43.6 µM and the GI50 ([13]; read-out: pGI50 (converted)) was 1.95 µM. For the same molecule, the CC50 [13, 32] was 9.55 µM, the TGI ([13]; read-out: pTGI (converted)) was 4.37 µM and the growth at 1 µM [14] was 106%. For the same molecule, the GI50 ([15]; read-out: GI50) was 3.1 µM, the CC50 [15, 31] was greater than 100 µM and the TGI ([15]; read-out: TGI) was 18 µM. It also gave a GI50 ([15]; read-out: pGI50 (converted)) of 3.09 µM, a CC50 [15, 32] greater than 100 µM and a TGI ([15]; read-out: pTGI (converted)) of 15.8 µM. For the same molecule, the growth at 100 µM [16] was -30%, the growth at 1 µM [17] was 94% and the growth at 0.01 µM [18] was 96%. For the same molecule, the growth at 10 µM [19] was 35.3%, the GI50 ([20]; read-out: GI50) was 2.59 µM and the LC50 ([20]; read-out: LC50) was greater than 100 µM. For the same molecule, the TGI ([20]; read-out: TGI) was 11 µM, the GI50 ([20]; read-out: pGI50 (converted)) was 2.57 µM and the LC50 ([20]; read-out: pLC50 (converted)) was greater than 100 µM. The TGI ([20]; read-out: pTGI (converted)) was 12 µM, the growth at 1 µM [21] was 96% and the growth at 100 µM [22] was -55%. The growth at 0.01 µM [23] was 102%, the GI50 ([24]; read-out: GI50) was 3.29 µM and the LC50 ([24]; read-out: LC50) was 58 µM. The TGI ([24]; read-out: TGI) was 10.7 µM, the GI50 ([24]; read-out: pGI50 (converted)) was 3.31 µM and the LC50 ([24]; read-out: pLC50 (converted)) was 56.2 µM. The TGI ([24]; read-out: pTGI (converted)) was 10.7 µM, the growth at 100 µM [25] was -57% and the growth at 100 µM [26] was -85%. The growth at 0.01 µM [27] was 97%, the growth at 0.01 µM [28] was 97% and the growth at 1 µM [29] was 96%. The growth at 0.1 µM [30] was 99%.
Molecule `COc1cc(Cl)cc(-c2nn(-c3cccc(NC(=O)c4cccc(C(F)(F)F)c4)c3)cc2-c2ccncc2)c1` has a growth at 100 µM [1] of 59%, a growth at 1 µM [2] of 58% and a growth at 100 µM [3] of 19%. For the same molecule, the GI50 ([4]; read-out: GI50) was greater than 100 µM, the CC50 [4, 31] was greater than 100 µM and the TGI ([4]; read-out: TGI) was greater than 100 µM. The GI50 ([4]; read-out: pGI50 (converted)) was greater than 100 µM, the CC50 [4, 32] was greater than 100 µM and the TGI ([4]; read-out: pTGI (converted)) was greater than 100 µM. For the same molecule, the growth at 0.1 µM [5] was 91%, the growth at 0.01 µM [6] was 101% and the growth at 1 µM [7] was 100%. It also gave a growth at 0.1 µM [8] of 95%, a growth at 1 µM [9] of 56% and a growth at 1 µM [10] of 50%. It also gave a growth at 0.01 µM [11] of 109%, a growth at 0.1 µM [12] of 88% and a GI50 ([13]; read-out: GI50) of 1.57 µM. The CC50 [13, 31] was greater than 100 µM, the TGI ([13]; read-out: TGI) was greater than 100 µM and the GI50 ([13]; read-out: pGI50 (converted)) was 15.8 µM. The CC50 [13, 32] was greater than 100 µM, the TGI ([13]; read-out: pTGI (converted)) was greater than 100 µM and the growth at 1 µM [14] was 103%. The GI50 ([15]; read-out: GI50) was greater than 100 µM, the CC50 [15, 31] was greater than 100 µM and the TGI ([15]; read-out: TGI) was greater than 100 µM. The GI50 ([15]; read-out: pGI50 (converted)) was greater than 100 µM, the CC50 [15, 32] was greater than 100 µM and the TGI ([15]; read-out: pTGI (converted)) was greater than 100 µM. It also gave a growth at 100 µM [16] of 22%, a growth at 1 µM [17] of 82% and a growth at 0.01 µM [18] of 103%. The growth at 10 µM [19] was 42.5%, the GI50 ([20]; read-out: GI50) was 4.59 µM and the LC50 ([20]; read-out: LC50) was greater than 100 µM. For the same molecule, the TGI ([20]; read-out: TGI) was greater than 100 µM, the GI50 ([20]; read-out: pGI50 (converted)) was 4.68 µM and the LC50 ([20]; read-out: pLC50 (converted)) was greater than 100 µM. The TGI ([20]; read-out: pTGI (converted)) was greater than 100 µM, the growth at 1 µM [21] was 101% and the growth at 100 µM [22] was 59%. The growth at 0.01 µM [23] was 108%, the GI50 ([24]; read-out: GI50) was greater than 100 µM and the LC50 ([24]; read-out: LC50) was greater than 100 µM. The TGI ([24]; read-out: TGI) was greater than 100 µM, the GI50 ([24]; read-out: pGI50 (converted)) was greater than 100 µM and the LC50 ([24]; read-out: pLC50 (converted)) was greater than 100 µM. The TGI ([24]; read-out: pTGI (converted)) was greater than 100 µM, the growth at 100 µM [25] was 27% and the growth at 100 µM [26] was 40%. It also gave a growth at 0.01 µM [27] of 108%, a growth at 0.01 µM [28] of 94% and a growth at 1 µM [29] of 54%. It also gave a growth at 0.1 µM [30] of 107%.
